Drawing on patent publication US10544106B2, “Certain chemical entities, compositions, and methods” (NeuPharma, Inc., priority 2016, dated 2020), this text covers inhibition and IC50 for 30 molecules.

Each structure is given as a SMILES string.

This test concerns the target BTK (Homo sapiens (Human), UniProt Q06187). The test can be described thus: Z'-LYTE kinase inhibition assay against BTK. The format is biochemical. Conditions: for inhibition at 0.1 µM: compound at 100 nM, ATP concentration at Km; for IC50: series of concentrations, GraphPad Prism 5. In outline: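 Z′-LYTE FRET readout: 1.04-10.4 ng BTK with 2 μM Tyr 01 peptide, ATP at Km, in 50 mM HEPES pH 7.5, 10 mM MgCl2, 1 mM EGTA, 0.01% BRIJ-35, 1% DMSO. 60 min kinase reaction at room temperature, then 60 min development; IC50 from 10-point, 3-fold titrations.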

Chain of BTK (Q06187 whole entry): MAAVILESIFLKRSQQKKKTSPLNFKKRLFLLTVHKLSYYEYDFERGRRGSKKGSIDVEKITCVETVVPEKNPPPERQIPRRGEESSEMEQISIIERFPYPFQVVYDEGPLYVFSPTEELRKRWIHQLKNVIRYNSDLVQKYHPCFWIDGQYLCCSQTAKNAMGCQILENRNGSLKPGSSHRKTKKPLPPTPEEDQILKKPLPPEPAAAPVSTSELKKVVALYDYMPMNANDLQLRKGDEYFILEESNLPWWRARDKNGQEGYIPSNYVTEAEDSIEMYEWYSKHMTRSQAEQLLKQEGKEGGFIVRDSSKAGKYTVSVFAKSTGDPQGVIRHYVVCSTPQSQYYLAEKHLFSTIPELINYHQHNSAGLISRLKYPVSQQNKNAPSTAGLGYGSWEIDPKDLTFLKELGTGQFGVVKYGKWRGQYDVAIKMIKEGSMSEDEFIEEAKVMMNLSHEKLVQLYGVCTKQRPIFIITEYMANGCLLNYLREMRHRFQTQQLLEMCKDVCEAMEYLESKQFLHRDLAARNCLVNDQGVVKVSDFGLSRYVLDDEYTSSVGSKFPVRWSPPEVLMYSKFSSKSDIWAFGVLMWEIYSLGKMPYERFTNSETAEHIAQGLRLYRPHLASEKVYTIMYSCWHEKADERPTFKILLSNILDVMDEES

As for `C=CC(=O)Nc1cccc(-c2cc(-c3ccc(Oc4cc(C(F)(F)F)ccn4)cc3F)c(N)c3cncnc23)c1` [C187, N-(3-(5-amino-6-(2-fluoro-4-((4-(trifluoromethyl)pyridin-2-yl)oxy)phenyl)quinazolin-8-yl)phenyl)acrylamide], the inhibition (in general, the relative decrease from the control value, in per cent) at 0.1 µM was below 50% and the IC50 – broadly, the concentration that gives 50% inhibition – was above 100 nM.

`C=CC(=O)Nc1cccc(-c2cc(-c3ccc(Oc4cc(C(F)(F)F)ccn4)cc3)c(N)c3cncnc23)c1` [C188, N-(3-(5-amino-6-(4-((4-(trifluoromethyl)pyridin-2-yl)oxy)phenyl)quinazolin-8-yl)phenyl)acrylamide]: the inhibition at 0.1 µM is below 50% and the IC50 was above 100 nM.

For the molecule `C=CC(=O)Nc1cccc(-c2cc(-c3ccc(Oc4cc(C#N)ccn4)cc3F)cc3cncnc23)c1` [C189, N-(3-(6-(4-((4-cyanopyridin-2-yl)oxy)-2-fluorophenyl)quinazolin-8-yl)phenyl)acrylamide], the inhibition at 0.1 µM was above 50% and the half-inhibitory concentration (IC50) is below 100 nM. In turn, `C=CC(=O)Nc1cccc(-c2cc(-c3ccc(C(=O)Nc4ccccn4)cc3Cl)c(N)c3cncnc23)c1` [C190, 4-(8-(3-acrylamidophenyl)-5-aminoquinazolin-6-yl)-3-chloro-N-(pyridin-2-yl)benzamide] yielded an inhibition at 0.1 µM above 50% and an IC50 below 100 nM. Molecule `C=CC(=O)Nc1cccc(-c2cc(-c3ccc(Oc4cc(C(N)=O)ccn4)cc3)cc3cncnc23)c1` [C191, 2-(4-(8-(3-acrylamidophenyl)quinazolin-6-yl)phenoxy)isonicotinamide] yielded an inhibition at 0.1 µM above 50% and an IC50 below 100 nM. On the same counts, the results for `C=CC(=O)N1CCC(c2cc(-c3ccc(Oc4ccccc4)cc3)c(N)c3cncnc23)C1` (stereo not shown) [C192, 1-(3-(5-amino-6-(4-phenoxyphenyl)quinazolin-8-yl)pyrrolidin-1-yl)prop-2-en-1-one] are below 50% and above 100 nM. For `C=CC(=O)N1CCC(c2cc(-c3ccc(Oc4cc(C(F)(F)F)ccn4)cc3)c(N)c3cncnc23)C1` (stereo not shown) [C193, 1-(3-(5-amino-6-(4-((4-(trifluoromethyl)pyridin-2-yl)oxy)phenyl)quinazolin-8-yl)pyrrolidin-1-yl)prop-2-en-1-one], the inhibition at 0.1 µM was below 50% and the IC50 was above 100 nM.

Regarding `C=CC(=O)Nc1cccc(-c2cc(-c3ccc(Oc4cc(C(N)=O)ccn4)cc3F)cc3cncnc23)c1` [C194, 2-(4-(8-(3-acrylamidophenyl)quinazolin-6-yl)-3-fluorophenoxy)isonicotinamide], the inhibition at 0.1 µM was above 50% and the IC50 is below 100 nM. On the same counts, the results for `C=CC(=O)N1CCC(c2cc(-c3ccc(Oc4cc(C(F)(F)F)ccn4)cc3F)c(N)c3cncnc23)C1` (stereo not shown) [C195, 1-(3-(5-amino-6-(2-fluoro-4-((4-(trifluoro-methyl)pyridin-2-yl)oxy)phenyl)quinazolin-8-yl)pyrrolidin-1-yl)prop-2-en-1-one] are below 50% and above 100 nM. On the same counts, the results for `C=CC(=O)Nc1cccc(-c2cc(-c3ccc(Oc4cc(C5CC5)ccn4)cc3F)cc3cncnc23)c1` [C198, N-(3-(6-(4-((4-cyclopropylpyridin-2-yl)oxy)-2-fluorophenyl)quinazolin-8-yl)phenyl)acrylamide] are above 50% and below 100 nM. In the case of `C=CC(=O)Nc1cccc(-c2cc(-c3ccc(C(=O)Nc4cc(C5CC5)ccn4)cc3Cl)c(N)c3cncnc23)c1` [C200, 4-(8-(3-acrylamidophenyl)-5-aminoquinazolin-6-yl)-3-chloro-N-(4-cyclopropylpyridin-2-yl)benzamide], the inhibition at 0.1 µM is above 50%. `C=CC(=O)Nc1cccc(-c2cc(-c3ccc(C(=O)Nc4ccccn4)cc3C#N)cc3cncnc23)c1` [C201, 4-(8-(3-acrylamidophenyl)quinazolin-6-yl)-3-cyano-N-(pyridin-2-yl)benzamide] yielded an inhibition at 0.1 µM above 50% and an IC50 below 100 nM. In the case of `C=CC(=O)Nc1cccc(-c2cc(-c3ccc(C(=O)Nc4cc(C5CC5)ccn4)cc3F)c(N)c3cncnc23)c1` [C202, 4-(8-(3-acrylamidophenyl)-5-aminoquinazolin-6-yl)-N-(4-cyclopropylpyridin-2-yl)-3-fluorobenzamide], the inhibition at 0.1 µM was above 50%.

Take `C=CC(=O)Nc1cccc(-c2cc(-c3ccc(Oc4ccccn4)cc3Cl)c(N)c3cncnc23)c1` [C203, N-(3-(5-amino-6-(2-chloro-4-(pyridin-2-yloxy)phenyl)quinazolin-8-yl)phenyl)acrylamide]: the inhibition at 0.1 µM is above 50%.

In turn, `CC#CC(=O)N1CCC(c2nc(-c3ccc(C(=O)Nc4ccccn4)cc3)n3c(N)ncnc23)C1` (stereo not shown) [C205, 4-(4-amino-8-(1-(but-2-ynoyl)pyrrolidin-3-yl)imidazo[1,5-a][1,3,5]triazin-6-yl)-N-(pyridin-2-yl)benzamide] returned an inhibition at 0.1 µM above 50%.

As to `C=CC(=O)N1CCC(c2nc(-c3ccc(Oc4cc(C(F)(F)F)ccn4)c(F)c3)n3c(N)nccc23)C1` (stereo not shown) [C206, 1-(3-(5-amino-3-(3-fluoro-4-((4-(trifluoro-methyl)pyridin-2-yl)oxy)phenyl)imidazo[1,5-c]pyrimidin-1-yl)pyrrolidin-1-yl)prop-2-en-1-one], the inhibition at 0.1 µM was above 50% and the concentration for half-maximal inhibition (IC50) is below 100 nM. Consider `CC#CC(=O)N1CCC(c2nc(-c3ccc(Oc4cc(C(F)(F)F)ccn4)c(F)c3)n3c(N)nccc23)C1` (stereo not shown) [C207, 1-(3-(5-amino-3-(3-fluoro-4-((4-(trifluoro-methyl)pyridin-2-yl)oxy)phenyl)imidazo[1,5-c]pyrimidin-1-yl)pyrrolidin-1-yl)but-2-yn-1-one], for which the inhibition at 0.1 µM was above 50%. Turning to `C=CC(=O)N1CCC(c2nc(-c3ccc(Oc4ccccn4)c(F)c3)n3c(N)nccc23)C1` (stereo not shown) [C208, 1-(3-(5-amino-3-(3-fluoro-4-(pyridin-2-yloxy)phenyl)imidazo[1,5-c]pyrimidin-1-yl)pyrrolidin-1-yl)prop-2-en-1-one], the inhibition at 0.1 µM is above 50% and the IC50 was below 100 nM. Consider `CC#CC(=O)N1CCC(c2nc(-c3ccc(Oc4ccccn4)c(F)c3)n3c(N)nccc23)C1` (stereo not shown) [C209, 1-(3-(5-amino-3-(3-fluoro-4-(pyridin-2-yloxy)phenyl)imidazo[1,5-c]pyrimidin-1-yl)pyrrolidin-1-yl)but-2-yn-1-one], for which the inhibition at 0.1 µM was above 50%. Take `C=CC(=O)Nc1cccc(-c2cc(-c3ccc(C(=O)Nc4ncccc4F)cc3)c(N)c3cncnc23)c1` [C211, 4-(8-(3-acrylamidophenyl)-5-aminoquinazolin-6-yl)-N-(3-fluoropyridin-2-yl)benzamide]: the inhibition at 0.1 µM was below 50%. `C=CC(=O)N1CCC(c2nc(-c3ccc(Oc4ccccn4)c(OC)c3)n3c(N)nccc23)C1` (stereo not shown) [C212, 1-(3-(5-amino-3-(3-methoxy-4-(pyridin-2-yloxy)phenyl)imidazo[1,5-c]pyrimidin-1-yl)pyrrolidin-1-yl)prop-2-en-1-one] registered an inhibition at 0.1 µM above 50% and an IC50 below 100 nM. With `CC#CC(=O)N1CCC(c2nc(-c3ccc(Oc4ccccn4)c(OC)c3)n3c(N)nccc23)C1` (stereo not shown) [C213, 1-(3-(5-amino-3-(3-methoxy-4-(pyridin-2-yloxy)phenyl)imidazo[1,5-c]pyrimidin-1-yl)pyrrolidin-1-yl)but-2-yn-1-one], the inhibition at 0.1 µM is above 50%.

The molecule `CC#CC(=O)N1CCC(c2nc(-c3ccc(Oc4cc(OC)ccn4)cc3)n3c(N)nccc23)C1` (stereo not shown) [C214, 1-(3-(5-amino-3-(4-((4-methoxypyridin-2-yl)oxy)phenyl)imidazo[1,5-c]pyrimidin-1-yl)pyrrolidin-1-yl)but-2-yn-1-one] registered an inhibition at 0.1 µM above 50%. Still for that read-out and setting: as for `C=CC(=O)N1CCC(c2cc(-c3ccc(C(=O)Nc4ncccc4F)cc3)c(N)c3cncnc23)C1` (stereo not shown) [C215, 4-(8-(1-acryloylpyrrolidin-3-yl)-5-amino-quinazolin-6-yl)-N-(3-fluoropyridin-2-yl)benzamide], the figure is below 50%. The molecule `C=CC(=O)N1CCC(c2nc(-c3ccc(Oc4cc(OC)ccn4)c(F)c3)n3c(N)nccc23)C1` (stereo not shown) [C216, 1-(3-(5-amino-3-(3-fluoro-4-((4-methoxy-pyridin-2-yl)oxy)phenyl)imidazo[1,5-c]pyrimidin-1-yl)pyrrolidin-1-yl)prop-2-en-1-one] yielded an inhibition at 0.1 µM above 50% and an IC50 below 100 nM. `C=CC(=O)Nc1cccc(-c2cc(-c3ccc(C(=O)Nc4ncccc4F)cc3Cl)c(N)c3cncnc23)c1` [C217, 4-(8-(3-acrylamidophenyl)-5-aminoquinazolin-6-yl)-3-chloro-N-(3-fluoropyridin-2-yl)benzamide] gave an inhibition at 0.1 µM above 50%. `C=CC(=O)N1CCC(c2nc(-c3ccc(Oc4ncccc4C(F)(F)F)cc3)n3c(N)nccc23)C1` (stereo not shown) [C218, 1-(3-(5-amino-3-(4-((3-(trifluoro-methyl)pyridin-2-yl)oxy)phenyl)imidazo[1,5-c]pyrimidin-1-yl)pyrrolidin-1-yl)prop-2-en-1-one]: the inhibition at 0.1 µM was above 50% and the 50% inhibitory concentration (IC50) was below 100 nM.

The molecule `CC#CC(=O)N1CCC(c2nc(-c3ccc(Oc4ncccc4C(F)(F)F)cc3)n3c(N)nccc23)C1` (stereo not shown) [C219, 1-(3-(5-amino-3-(4-((3-(trifluoromethyl)pyridin-2-yl)oxy)phenyl)imidazo[1,5-c]pyrimidin-1-yl)pyrrolidin-1-yl)but-2-yn-1-one] yielded an inhibition at 0.1 µM below 50%. On the same count and under the same terms, as for `C=CC(=O)Nc1cccc(-c2nc(-c3ccc(Oc4ncccc4C(F)(F)F)cc3)n3c(N)nccc23)c1` [C220, N-(3-(5-amino-3-(4-((3-(trifluoromethyl)pyridin-2-yl)oxy)phenyl)imidazo[1,5-c]pyrimidin-1-yl)phenyl)acrylamide], the figure is above 50%; as for `C=CC(=O)N1CCC(c2nc(-c3ccc(Oc4cc(C(F)(F)F)ccn4)c(OC)c3)n3c(N)nccc23)C1` (stereo not shown) [C221, 1-(3-(5-amino-3-(3-methoxy-4-((4-(trifluoro-methyl)pyridin-2-yl)oxy)phenyl)imidazo[1,5-c]pyrimidin-1-yl)pyrrolidin-1-yl)prop-2-en-1-one], above 50%.
